The text below walks through data of patent publication US8202889B2, “Inhibitors of bacterial IMPDH” (Vertex Pharmaceuticals Incorporated, priority 2005, dated 2012).

A value given as a limit tells only on which side of the number the result lay.

The target of assay [1] is E. coli IMPDH enzyme (Escherichia coli, UniProt P0ADG7). The experiment in a line: IMPDH Activity Inhibition Assay. In kind it is biochemical. To be noted: for activity at 10 µM: percent remaining activity of E. coli IMPDH enzyme at 10 μM inhibitor (I) and 55 nM enzyme (E); for activity at 25 µM: percent remaining activity of E. coli IMPDH enzyme at 25 μM inhibitor (I) and 14 nM enzyme (E). The procedure: IMP dehydrogenase activity was assayed according to the method reported by Hedstrom. [Hedstrom, L. et al., Biochemistry, 39, pp. 9804-9810 (2000), the disclosure of which is herein incorporated by reference]. Table 1 below lists the percent remaining activity of E. coli IMPDH enzyme (E) at either 25 μM inhibitor (I) and 14 nM enzyme (E) or 10 μM inhibitor (I) and 55 nM enzyme (E). “ND” means no data.

The test system of assay [2] is bacterial IMPDH. The conditions noted are these: Hedstrom et al., Curr. Med. Chem. 1999; cited from earlier work.

Sequence of E. coli IMPDH enzyme (P0ADG7 whole entry): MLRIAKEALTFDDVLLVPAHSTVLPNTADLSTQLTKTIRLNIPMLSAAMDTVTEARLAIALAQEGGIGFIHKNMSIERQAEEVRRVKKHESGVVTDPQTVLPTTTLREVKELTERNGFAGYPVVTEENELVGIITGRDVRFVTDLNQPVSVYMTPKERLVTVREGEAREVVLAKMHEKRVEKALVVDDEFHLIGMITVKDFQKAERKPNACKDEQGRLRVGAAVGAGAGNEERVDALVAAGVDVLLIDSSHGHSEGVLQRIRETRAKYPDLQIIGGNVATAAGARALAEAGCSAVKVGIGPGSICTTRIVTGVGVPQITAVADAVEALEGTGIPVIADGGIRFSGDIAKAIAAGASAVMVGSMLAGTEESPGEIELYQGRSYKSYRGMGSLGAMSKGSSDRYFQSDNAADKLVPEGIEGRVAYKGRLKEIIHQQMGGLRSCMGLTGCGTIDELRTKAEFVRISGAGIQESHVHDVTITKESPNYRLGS

`Cc1cccc(NC(=O)c2ccc3cc(C(=O)Nc4cccc(C)n4)ccc3c2)n1` [Compound 8] had an activity at 10 µM in assay [1] of 87%.

`O=C(Nc1nncs1)c1ccc2cc(C(=O)Nc3nncs3)ccc2c1` [Compound 12] showed an activity at 10 µM in assay [1] of 100%.

Turning to `CCOc1cccc2sc(NC(=O)c3cc4ccccc4cc3OC)nc12` [Compound 7], in assay [1], the activity at 25 µM was 76%.

`O=C(Nc1nccs1)c1ccc2cc(C(=O)Nc3nccs3)ccc2c1` [Compound 11]: in assay [1], the activity at 10 µM was determined as 97%.

Consider `COc1c(C)c2c(c(O)c1C/C=C(\C)CCC(=O)O)C(=O)OC2` [mycophenolic acid], for which the “fold less potent against bacterial IMPDH versus mammalian IMPDH” value in assay [2] is over 1000 fold.

`COc1ccc(-c2csc(NC(=O)c3cc4ccccc4cc3OC)n2)cc1OC` [Compound 10] gave an activity at 10 µM in assay [1] of 73%.

As for `O=C(Nc1nc2ccccc2[nH]1)c1ccc2cc(C(=O)Nc3nc4ccccc4[nH]3)ccc2c1` [Compound 6], the activity at 25 µM in assay [1] was found to be 90%.

With `COc1cc2ccccc2cc1C(=O)Nc1nc(-c2c(OC)ccc3ccccc23)cs1` [Compound 9], in assay [1], the activity at 10 µM is 100%.
